Assay results taken from US20220289794A1, “SYNTHETIC ANTIMICROBIAL PEPTIDES” (priority 2019, published 2022).
Values after ≈ are worked out from the molar mass of the structure shown. Non-standard residues stand in square brackets, D forms with d. Residues, ends and D or L forms follow the SMILES beside them. dDip = N[C@@H](C(=O)O)C(c1ccccc1)c1ccccc1; Dip = N[C@H](C(=O)O)C(c1ccccc1)c1ccccc1; 2Nal = N[C@@H](Cc1ccc2ccccc2c1)C(=O)O; d2Nal = N[C@H](Cc1ccc2ccccc2c1)C(=O)O

What was measured:
[1] = system: Pseudomonas aeruginosa (ATCC 27883); conditions: ATCC 27883
[2] = system: Escherichia coli (ATCC 25922); conditions: ATCC 25922
[3] = in vitro; conditions: human, fresh human red blood cells (washed), pH 7.4
[4] = system: Methicillin-resistant Staphylococcus aureus MRSA (ATCC BAA-1556); conditions: ATCC BAA-1556

| Compound | MIC P. aeruginosa ATCC 27883 [1] [µg/mL] | MIC E. coli ATCC 25922 [2] [µg/mL] | HC50 at 0.5 h [3] [µg/mL] | MIC MRSA ATCC BAA-1556 [4] [µg/mL] |
| --- | --- | --- | --- | --- |
| N=C(N)NCCC[C@@H]1NC(=O)[C@H](CCCNC(=N)N)NC(=O)[C@@H](Cc2ccc3ccccc3c2)NC(=O)[C@@H](Cc2ccc3ccccc3c2)NC(=O)[C@H](Cc2c[nH]c3ccccc23)NC(=O)[C@@H](CCCNC(=N)N)NC(=O)[C@@H](CCCNC(=N)N)NC1=O [IFX-116, c[Arg-Arg-arg-arg-Trp-naI-naI]] (cyclo(RR[dR][dR]W[d2Nal][d2Nal])) | 32 (≈ 26.5 µM) | 32 (≈ 26.5 µM) | 480 |  |
| N=C(N)NCCC[C@@H]1NC(=O)[C@H](CCCNC(=N)N)NC(=O)[C@@H](CCCNC(=N)N)NC(=O)[C@@H](CCCNC(=N)N)NC(=O)[C@@H](Cc2ccc3ccccc3c2)NC(=O)[C@@H](Cc2ccc3ccccc3c2)NC(=O)[C@@H](Cc2c[nH]c3ccccc23)NC1=O [IFX-119, c[arg-arg-Arg-Arg-trp-naI-naI]] (cyclo([dR][dR]RR[dW][d2Nal][d2Nal])) | 32 (≈ 26.5 µM) | 16 (≈ 13.3 µM) | 200 |  |
| N=C(N)NCCC[C@@H]1NC(=O)[C@H](Cc2ccc3ccccc3c2)NC(=O)[C@H](Cc2ccc3ccccc3c2)NC(=O)[C@H](Cc2ccc3ccccc3c2)NC(=O)[C@H](CCCNC(=N)N)NC(=O)[C@@H](CCCNC(=N)N)NC(=O)[C@H](CCCNC(=N)N)NC1=O [IFX-078, c[Arg-Arg-arg-Arg-NaI-NaI-NaI]] (cyclo(RR[dR]R[2Nal][2Nal][2Nal])) | 12.5 (≈ 10.3 µM) |  | 95 |  |
| N=C(N)NCCC[C@@H]1NC(=O)[C@H](CCCNC(=N)N)NC(=O)[C@H](CCCNC(=N)N)NC(=O)[C@@H](CCCNC(=N)N)NC(=O)[C@H](Cc2ccc3ccccc3c2)NC(=O)[C@H](Cc2ccc3ccccc3c2)NC(=O)[C@H](Cc2ccc3ccccc3c2)NC1=O [IFX-080, c[arg-Arg-Arg-Arg-NaI-NaI-NaI]] (cyclo([dR]RRR[2Nal][2Nal][2Nal])) | 12.5 (≈ 10.3 µM) |  | 200 |  |
| N=C(N)NCCC[C@@H]1NC(=O)[C@@H](CCCNC(=N)N)NC(=O)[C@H](CCCNC(=N)N)NC(=O)[C@@H](CCCNC(=N)N)NC(=O)[C@@H](Cc2ccc3ccccc3c2)NC(=O)[C@@H](Cc2ccc3ccccc3c2)NC(=O)[C@@H](Cc2ccc3ccccc3c2)NC1=O [IFX-082, c[arg-Arg-arg-Arg-naI-naI-naI]] (cyclo([dR]R[dR]R[d2Nal][d2Nal][d2Nal])) | 12.5 (≈ 10.3 µM) |  | 150 |  |
| N=C(N)NCCC[C@@H]1NC(=O)[C@H](CCCNC(=N)N)NC(=O)[C@@H](Cc2ccc3ccccc3c2)NC(=O)[C@@H](Cc2ccc3ccccc3c2)NC(=O)[C@@H](Cc2c[nH]c3ccccc23)NC(=O)[C@@H](CCCNC(=N)N)NC(=O)[C@@H](CCCNC(=N)N)NC1=O [IFX-118, c[Arg-Arg-arg-arg-trp-naI-naI]] (cyclo(RR[dR][dR][dW][d2Nal][d2Nal])) | 16 (≈ 13.3 µM) | 16 (≈ 13.3 µM) | 210 | 3.1 (≈ 2.57 µM) |
| N=C(N)NCCC[C@H]1NC(=O)[C@@H](CCCNC(=N)N)NC(=O)[C@@H](CCCNC(=N)N)NC(=O)[C@@H](Cc2ccc3ccccc3c2)NC(=O)[C@@H](Cc2ccc3ccccc3c2)NC(=O)[C@@H](Cc2ccc3ccccc3c2)NC(=O)[C@@H](CCCNC(=N)N)NC1=O [IFX-081, c[arg-arg-arg-arg-naI-naI-naI]] (cyclo([dR][dR][dR][dR][d2Nal][d2Nal][d2Nal])) | 50 (≈ 41.1 µM) |  | 200 |  |
| N=C(N)NCCC[C@@H]1NC(=O)[C@@H](CCCNC(=N)N)NC(=O)[C@H](CCCNC(=N)N)NC(=O)[C@@H](CCCNC(=N)N)NC(=O)[C@@H](Cc2ccc3ccccc3c2)NC(=O)[C@H](Cc2ccc3ccccc3c2)NC(=O)[C@@H](Cc2ccc3ccccc3c2)NC1=O [IFX-083, c[arg-Arg-arg-Arg-naI-NaI-naI]] (cyclo([dR]R[dR]R[d2Nal][2Nal][d2Nal])) | 12.5 (≈ 10.3 µM) |  | 170 |  |
| N=C(N)NCCC[C@@H]1NC(=O)[C@H](CCCNC(=N)N)NC(=O)[C@H](Cc2ccc3ccccc3c2)NC(=O)[C@H](Cc2ccc3ccccc3c2)NC(=O)[C@@H](Cc2ccc3ccccc3c2)NC(=O)[C@H](CCCNC(=N)N)NC(=O)[C@H](CCCNC(=N)N)NC1=O [IFX-076, c[Arg-Arg-Arg-Arg-naI-NaI-NaI]] (cyclo(RRRR[d2Nal][2Nal][2Nal])) | 12.5 (≈ 10.3 µM) |  | 100 |  |
| N=C(N)NCCC[C@@H]1NC(=O)[C@@H](CCCNC(=N)N)NC(=O)[C@H](CCCNC(=N)N)NC(=O)[C@@H](CCCNC(=N)N)NC(=O)[C@@H](C(c2ccccc2)c2ccccc2)NC(=O)[C@H](C(c2ccccc2)c2ccccc2)NC(=O)[C@@H](C(c2ccccc2)c2ccccc2)NC1=O [IFX-069, c[arg-Arg-arg-Arg-dip-Dip-dip]] (cyclo([dR]R[dR]R[dDip][Dip][dDip])) | 6.2 (≈ 4.79 µM) |  | 200 |  |
